Among the data in paper PMC6934184, “Selective DNA-PKcs inhibition extends the therapeutic index of localized radiotherapy and chemotherapy” (The Journal of Clinical Investigation, 2019) are inhibition values, retold here.

The experiment deals with T1, DYRK3 (Homo sapiens, UniProt O43781).
T1 construct: purchased Thermo Fisher Scientific (Life Technologies) SelectScreen
Kind of experiment: SelectScreen Z'LYTE. In kind it is biochemical. The method, boiled down:
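NU5455 was profiled across the SelectScreen Broad panel of kinase activity and binding assays. Z'LYTE reactions such as CSF1R ran at apparent Km ATP, while the Adapta CAMK1 assay used ATP listed as 10. Values are given as percent.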

T1 sequence (O43781 whole entry): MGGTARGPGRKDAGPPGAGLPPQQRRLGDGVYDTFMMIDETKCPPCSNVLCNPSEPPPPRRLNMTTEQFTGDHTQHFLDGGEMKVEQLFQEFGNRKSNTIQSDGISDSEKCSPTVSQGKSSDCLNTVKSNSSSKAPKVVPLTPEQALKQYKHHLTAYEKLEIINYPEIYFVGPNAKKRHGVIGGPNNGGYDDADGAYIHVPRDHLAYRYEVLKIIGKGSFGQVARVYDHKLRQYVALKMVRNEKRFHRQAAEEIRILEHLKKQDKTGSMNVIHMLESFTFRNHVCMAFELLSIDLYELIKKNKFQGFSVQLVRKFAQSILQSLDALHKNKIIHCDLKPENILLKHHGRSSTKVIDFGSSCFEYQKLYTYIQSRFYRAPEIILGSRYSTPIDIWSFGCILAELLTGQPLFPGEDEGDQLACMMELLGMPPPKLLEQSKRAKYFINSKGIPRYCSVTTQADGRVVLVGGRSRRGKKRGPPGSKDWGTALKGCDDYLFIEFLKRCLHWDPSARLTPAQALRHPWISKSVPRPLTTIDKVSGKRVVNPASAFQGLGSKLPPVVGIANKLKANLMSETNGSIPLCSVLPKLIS

For the molecule `CN(C(=O)CN1CCOCC1)c1ccc2sc3c(-c4cccc5c(=O)cc(N6CC7CCC(C6)O7)oc45)cccc3c2c1` [NU5455], the inhibition (in general, the share of the control response that was lost under treatment) at 1 µM turned out to be 2.6%.
